Measured values taken from patent EP4722207A1, “OXOISOINDOLINYL-SUBSTITUTED TETRAHYDROPYRIMIDINEDIONE DERIVATIVE AND USE THEREOF” (Gluetacs Therapeutics (Shanghai) Co., Ltd., priority 2023, dated 2024).

Legend:
[1] = target: T1, WEE1 (Homo sapiens, UniProt P30291+Q96SW2); experiment: Western-blot assay, substrate protein degradation in hPBMCs: WEE1; format: cell-based; conditions: 24 hours of compound treatment, 50 nM and 500 nM
T1 construct: effects of the compounds of the present disclosure on the expression of target proteins in cells; endogenous in cells; host or cells: human PBMCs (hPBMCs)
T1 sequence (P30291 whole entry): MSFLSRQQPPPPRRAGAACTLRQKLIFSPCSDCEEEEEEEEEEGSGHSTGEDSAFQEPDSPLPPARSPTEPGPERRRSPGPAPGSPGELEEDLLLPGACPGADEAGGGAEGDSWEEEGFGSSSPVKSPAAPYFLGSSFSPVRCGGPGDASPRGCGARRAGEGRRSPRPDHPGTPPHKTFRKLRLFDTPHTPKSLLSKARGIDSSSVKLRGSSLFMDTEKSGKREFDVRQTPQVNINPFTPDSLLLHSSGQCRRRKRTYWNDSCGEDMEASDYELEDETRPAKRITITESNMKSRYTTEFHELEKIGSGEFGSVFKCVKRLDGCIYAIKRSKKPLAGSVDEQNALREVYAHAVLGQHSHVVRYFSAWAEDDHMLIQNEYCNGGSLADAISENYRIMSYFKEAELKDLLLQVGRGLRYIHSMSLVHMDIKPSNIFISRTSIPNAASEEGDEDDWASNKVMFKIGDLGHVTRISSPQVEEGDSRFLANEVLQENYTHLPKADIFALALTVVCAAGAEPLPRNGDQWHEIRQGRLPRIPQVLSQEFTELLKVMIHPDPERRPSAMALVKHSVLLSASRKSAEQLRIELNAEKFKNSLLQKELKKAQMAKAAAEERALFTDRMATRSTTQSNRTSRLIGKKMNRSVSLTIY
T1 sequence (Q96SW2 whole entry): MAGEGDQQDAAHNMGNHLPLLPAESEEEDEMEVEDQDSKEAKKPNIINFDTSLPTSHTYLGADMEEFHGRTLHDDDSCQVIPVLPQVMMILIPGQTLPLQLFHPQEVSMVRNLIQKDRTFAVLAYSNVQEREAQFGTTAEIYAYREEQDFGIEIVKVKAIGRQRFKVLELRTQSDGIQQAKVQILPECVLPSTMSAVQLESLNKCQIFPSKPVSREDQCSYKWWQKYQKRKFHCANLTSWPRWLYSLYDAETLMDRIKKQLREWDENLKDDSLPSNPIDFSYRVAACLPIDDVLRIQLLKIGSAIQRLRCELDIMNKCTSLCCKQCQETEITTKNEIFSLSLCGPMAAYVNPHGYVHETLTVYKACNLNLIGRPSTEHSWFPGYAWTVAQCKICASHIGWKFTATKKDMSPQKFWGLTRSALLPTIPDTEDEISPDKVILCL
T1 sequence (Q16531 whole entry partner): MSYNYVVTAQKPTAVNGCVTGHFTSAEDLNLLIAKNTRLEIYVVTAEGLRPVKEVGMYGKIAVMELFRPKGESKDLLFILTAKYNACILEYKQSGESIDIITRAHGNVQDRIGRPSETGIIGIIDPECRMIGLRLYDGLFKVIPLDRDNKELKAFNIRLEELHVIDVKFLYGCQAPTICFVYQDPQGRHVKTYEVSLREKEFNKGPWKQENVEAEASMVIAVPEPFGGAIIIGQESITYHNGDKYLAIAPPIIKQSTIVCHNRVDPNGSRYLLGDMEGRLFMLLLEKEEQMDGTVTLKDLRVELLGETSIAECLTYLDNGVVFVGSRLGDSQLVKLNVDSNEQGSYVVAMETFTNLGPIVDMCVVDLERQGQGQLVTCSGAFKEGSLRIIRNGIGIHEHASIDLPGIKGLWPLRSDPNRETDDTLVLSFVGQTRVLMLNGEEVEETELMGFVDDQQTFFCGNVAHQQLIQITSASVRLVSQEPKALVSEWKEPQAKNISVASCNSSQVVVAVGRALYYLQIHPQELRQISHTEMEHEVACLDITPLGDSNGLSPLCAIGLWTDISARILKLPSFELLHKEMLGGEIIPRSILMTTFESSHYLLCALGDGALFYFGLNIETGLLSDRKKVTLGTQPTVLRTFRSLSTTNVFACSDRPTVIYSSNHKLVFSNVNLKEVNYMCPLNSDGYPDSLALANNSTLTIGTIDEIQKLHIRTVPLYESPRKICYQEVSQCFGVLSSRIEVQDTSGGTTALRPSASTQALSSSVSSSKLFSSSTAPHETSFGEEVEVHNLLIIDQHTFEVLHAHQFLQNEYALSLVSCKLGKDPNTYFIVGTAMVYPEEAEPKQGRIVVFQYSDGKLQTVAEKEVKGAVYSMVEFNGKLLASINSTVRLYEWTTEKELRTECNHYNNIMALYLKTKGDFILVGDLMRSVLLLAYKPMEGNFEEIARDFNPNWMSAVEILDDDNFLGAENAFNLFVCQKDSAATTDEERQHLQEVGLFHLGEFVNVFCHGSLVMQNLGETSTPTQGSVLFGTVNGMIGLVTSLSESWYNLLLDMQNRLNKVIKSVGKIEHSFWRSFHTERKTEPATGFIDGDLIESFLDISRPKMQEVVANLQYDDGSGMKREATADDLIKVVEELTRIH

[2] = test system: MDA-MB-231; experiment: Cell viability assay (CellTiter-Meiluncell Luminescent), tumor cell proliferation, MDA-MB-231; conditions: Homo sapiens, MDA-MB-231, 96 h; for inhibition at 0.01 µM: read-out: Inhibition Rate at 10 nM (%); for inhibition at 0.5 µM: read-out: Inhibition Rate at 500 nM (%)
[3] = target: T2, GSPT1 (Homo sapiens, UniProt P15170+Q96SW2); experiment: Western-blot assay, substrate protein degradation in hPBMCs: GSPT1; format: cell-based; conditions: 24 hours of compound treatment, 50 nM and 500 nM
T2 construct: effects of the compounds of the present disclosure on the expression of target proteins in cells; endogenous in cells; host or cells: human PBMCs (hPBMCs)

[4] = test system: H292; experiment: Cell viability assay (CellTiter-Meiluncell Luminescent), tumor cell proliferation, H292; conditions: Homo sapiens, NCI-H292, 96 h; for inhibition at 0.01 µM: read-out: Inhibition Rate at 10 nM (%); for inhibition at 0.5 µM: read-out: Inhibition Rate at 500 nM (%)
[5] = target: T3, CK1α (Homo sapiens, UniProt P48729+Q96SW2); experiment: Western-blot assay, substrate protein degradation in hPBMCs: CK1α; format: cell-based; conditions: 24 hours of compound treatment, 50 nM and 500 nM
T3 construct: effects of the compounds of the present disclosure on the expression of target proteins in cells; endogenous in cells; host or cells: human PBMCs (hPBMCs)
T3 sequence (P48729 whole entry): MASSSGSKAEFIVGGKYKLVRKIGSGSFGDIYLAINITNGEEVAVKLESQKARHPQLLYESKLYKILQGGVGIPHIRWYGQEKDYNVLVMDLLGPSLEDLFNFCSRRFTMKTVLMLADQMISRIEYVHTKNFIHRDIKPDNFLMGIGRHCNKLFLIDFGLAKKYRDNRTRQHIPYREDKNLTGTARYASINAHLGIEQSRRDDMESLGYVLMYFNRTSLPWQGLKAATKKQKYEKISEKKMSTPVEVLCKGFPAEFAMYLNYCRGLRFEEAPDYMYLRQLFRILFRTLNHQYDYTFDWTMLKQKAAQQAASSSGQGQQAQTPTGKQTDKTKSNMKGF
T3 sequence (Q96SW2 whole entry): as the sequence (Q96SW2 whole entry) above
T3 sequence (Q16531 whole entry partner): as the sequence (Q16531 whole entry partner) above

[6] = target: T4, IKZF3 (Homo sapiens, UniProt Q96SW2+Q9UKT9); experiment: Western-blot assay, substrate protein degradation in hPBMCs: IKZF3; format: cell-based; conditions: 24 hours of compound treatment, 50 nM and 500 nM
T4 construct: effects of the compounds of the present disclosure on the expression of target proteins in cells; endogenous in cells; host or cells: human PBMCs (hPBMCs)
T4 sequence (Q9UKT9 whole entry): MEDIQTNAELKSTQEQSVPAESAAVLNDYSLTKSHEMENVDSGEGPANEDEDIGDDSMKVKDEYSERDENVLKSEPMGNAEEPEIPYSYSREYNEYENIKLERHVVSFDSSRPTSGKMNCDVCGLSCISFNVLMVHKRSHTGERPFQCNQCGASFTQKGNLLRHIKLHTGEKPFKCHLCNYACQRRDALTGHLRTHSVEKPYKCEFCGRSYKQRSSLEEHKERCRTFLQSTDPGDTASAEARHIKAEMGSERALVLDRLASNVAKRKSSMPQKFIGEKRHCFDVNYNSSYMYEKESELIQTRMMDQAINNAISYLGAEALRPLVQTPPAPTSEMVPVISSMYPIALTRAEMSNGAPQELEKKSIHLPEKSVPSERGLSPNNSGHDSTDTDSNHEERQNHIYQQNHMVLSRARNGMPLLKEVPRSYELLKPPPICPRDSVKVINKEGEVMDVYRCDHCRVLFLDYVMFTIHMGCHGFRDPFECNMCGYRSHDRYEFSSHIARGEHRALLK
T4 sequence (Q96SW2 whole entry): as the sequence (Q96SW2 whole entry) above
T4 sequence (Q16531 whole entry partner): as the sequence (Q16531 whole entry partner) above

[7] = target: T5, IKZF1 (Homo sapiens, UniProt Q13422+Q96SW2); experiment: Western-blot assay, substrate protein degradation in hPBMCs: IKZF1; format: cell-based; conditions: 24 hours of compound treatment, 50 nM and 500 nM
T5 construct: effects of the compounds of the present disclosure on the expression of target proteins in cells; endogenous in cells; host or cells: human PBMCs (hPBMCs)
T5 sequence (Q13422 whole entry): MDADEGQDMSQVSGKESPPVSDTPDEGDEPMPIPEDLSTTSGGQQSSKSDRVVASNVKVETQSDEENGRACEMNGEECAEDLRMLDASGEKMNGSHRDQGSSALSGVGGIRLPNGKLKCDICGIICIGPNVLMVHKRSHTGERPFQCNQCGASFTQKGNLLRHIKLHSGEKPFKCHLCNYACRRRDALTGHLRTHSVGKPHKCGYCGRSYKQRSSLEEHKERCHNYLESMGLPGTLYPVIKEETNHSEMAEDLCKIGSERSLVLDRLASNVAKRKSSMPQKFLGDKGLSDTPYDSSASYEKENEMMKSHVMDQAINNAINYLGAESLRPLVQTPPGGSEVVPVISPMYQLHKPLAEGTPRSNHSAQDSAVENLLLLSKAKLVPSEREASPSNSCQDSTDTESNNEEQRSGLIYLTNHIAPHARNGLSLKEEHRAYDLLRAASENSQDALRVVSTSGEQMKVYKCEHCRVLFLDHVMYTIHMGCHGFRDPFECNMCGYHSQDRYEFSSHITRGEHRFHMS
T5 sequence (Q96SW2 whole entry): as the sequence (Q96SW2 whole entry) above
T5 sequence (Q16531 whole entry partner): as the sequence (Q16531 whole entry partner) above

[8] = target: T6, IKZF2 (Homo sapiens, UniProt Q96SW2+Q9UKS7); experiment: Western-blot assay, substrate protein degradation in hPBMCs: IKZF2; format: cell-based; conditions: 24 hours of compound treatment, 50 nM and 500 nM
T6 construct: effects of the compounds of the present disclosure on the expression of target proteins in cells; endogenous in cells; host or cells: human PBMCs (hPBMCs)
T6 sequence (Q9UKS7 whole entry): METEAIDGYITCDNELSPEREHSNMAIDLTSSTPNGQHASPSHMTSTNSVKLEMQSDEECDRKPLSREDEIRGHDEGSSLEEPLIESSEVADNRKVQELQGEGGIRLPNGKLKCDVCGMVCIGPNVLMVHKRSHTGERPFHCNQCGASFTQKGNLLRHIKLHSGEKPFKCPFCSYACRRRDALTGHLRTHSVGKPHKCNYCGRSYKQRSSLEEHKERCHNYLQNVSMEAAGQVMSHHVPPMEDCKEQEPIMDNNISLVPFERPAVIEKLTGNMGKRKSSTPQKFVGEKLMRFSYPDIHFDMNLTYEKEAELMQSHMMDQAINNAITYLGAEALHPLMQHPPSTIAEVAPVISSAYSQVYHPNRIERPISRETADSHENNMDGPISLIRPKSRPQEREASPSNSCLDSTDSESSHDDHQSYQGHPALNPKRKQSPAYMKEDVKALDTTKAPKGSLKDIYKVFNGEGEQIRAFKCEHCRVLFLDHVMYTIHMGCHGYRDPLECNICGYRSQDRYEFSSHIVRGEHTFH
T6 sequence (Q96SW2 whole entry): as the sequence (Q96SW2 whole entry) above
T6 sequence (Q16531 whole entry partner): as the sequence (Q16531 whole entry partner) above

[9] = test system: MV-4-11; experiment: Cell viability assay (CellTiter-Meiluncell Luminescent), tumor cell proliferation, MV-4-11; conditions: Homo sapiens, MV4-11, 96 h; for inhibition at 0.01 µM: read-out: Inhibition Rate at 10 nM (%); for inhibition at 0.5 µM: read-out: Inhibition Rate at 500 nM (%)

SMILES	substrate protein remaining % WEE1 [1]	inhibition at 0.01 µM [2]	inhibition at 0.5 µM [2]	substrate protein remaining % GSPT1 [3]	inhibition at 0.01 µM [4]	inhibition at 0.5 µM [4]	substrate protein remaining % CK1α [5]	substrate protein remaining % IKZF3 [6]	substrate protein remaining % IKZF1 [7]	substrate protein remaining % IKZF2 [8]	inhibition at 0.01 µM [9]	inhibition at 0.5 µM [9]
O=C1CCN(N2C(=O)c3ccc(CN4CCC(c5ncnc6sc(-c7ccccc7)cc56)CC4)cc3C2=O)C(=O)N1 [GT-08108, 2-(2,4-dioxotetrahydropyrimidin-1(2H)-yl)-5-((4-(6-phenylthieno[2,3-d]pyrimidin-4-yl)piperidin-1-yl)methyl)isoindoline-1,3-dione]	A (0% ≤ substrate protein remaining % ≤ 80%)	25 to 40%	18 to 25%	A (0% ≤ substrate protein remaining % ≤ 80%)	20 to 40%	15 to 20%	A (0% ≤ substrate protein remaining % ≤ 80%)	A (0% ≤ substrate protein remaining % ≤ 80%)	A (0% ≤ substrate protein remaining % ≤ 80%)	A (0% ≤ substrate protein remaining % ≤ 80%)	–	–
NCc1ccc2c(c1)CN(N1CCC(=O)NC1=O)C2=O [GT-08118, 1-(5-(aminomethyl)-1-oxoisoindolin-2-yl)dihydropyrimidine-2,4(1H,3H)-dione]	–	18 to 25%	25 to 40%	–	20 to 40%	20 to 40%	–	–	–	–	40 to 60%	40 to 60%
Cc1csc2ncnc(C3=CCN(Cc4ccc5c(c4)CN(N4CCC(=O)NC4=O)C5=O)CC3)c12 [GT-08117, 1-(5-((4-(5-methylthieno[2,3-d]pyrimidin-4-yl)-3,6-dihydropyridin-1(2H)-yl)methyl)-1-oxoisoindolin-2-yl)dihydropyrimidine-2,4(1H,3H)-dione]	B (80%< substrate protein remaining %≤ 100%)	18 to 25%	18 to 25%	A (0% ≤ substrate protein remaining % ≤ 80%)	20 to 40%	20 to 40%	A (0% ≤ substrate protein remaining % ≤ 80%)	A (0% ≤ substrate protein remaining % ≤ 80%)	B (80%< substrate protein remaining %≤ 100%)	B (80%< substrate protein remaining %≤ 100%)	–	–
O=C1CCN(N2C(=O)c3ccc(CN4CCC(c5ncnc6scc(-c7ccccc7)c56)CC4)cc3C2=O)C(=O)N1 [GT-08109, 2-(2,4-dioxotetrahydropyrimidin-1(2H)-yl)-5-((4-(5-phenylthieno[2,3-d]pyrimidin-4-yl)piperidin-1-yl)methyl)isoindoline-1,3-dione]	A (0% ≤ substrate protein remaining % ≤ 80%)	18 to 25%	5 to 10%	A (0% ≤ substrate protein remaining % ≤ 80%)	15 to 20%	1 to 5%	A (0% ≤ substrate protein remaining % ≤ 80%)	A (0% ≤ substrate protein remaining % ≤ 80%)	A (0% ≤ substrate protein remaining % ≤ 80%)	A (0% ≤ substrate protein remaining % ≤ 80%)	–	–
O=C1CCN(N2Cc3cc(CNC45CC6CC(CC(C6)C4)C5)ccc3C2=O)C(=O)N1 [GT-07806, 1-(5-((((3s,5s,7s)-adamantan-1-yl)amino)methyl)-1-oxoisoindolin-2-yl)dihydropyrimidine-2,4(1H,3H)-dione]	–	18 to 25%	18 to 25%	–	15 to 20%	15 to 20%	–	–	–	–	5 to 10%	25 to 30%
CC1(C)[C@@H]2CC[C@]1(CS(=O)(=O)NCc1ccc3c(c1)C(=O)N(N1CCC(=O)NC1=O)C3=O)C(=O)C2 [GT-07998, 1-((1R,4R)-7,7-dimethyl-2-oxobicyclo[2.2.1]heptan-1-yl)-N-((2-(2,4-dioxotetrahydropyrimidin-1(2H)-yl)-1,3-dioxoisoindolin-5-yl)methyl)methanesulfonamide]	–	25 to 40%	10 to 15%	–	15 to 20%	1 to 5%	–	–	–	–	–	–
O=C1CCN(N2C(=O)c3ccc(CN4CCN(c5nccc(Cl)c5F)CC4)cc3C2=O)C(=O)N1 [GT-08190, 5-((4-(4-chloro-3-fluoropyridin-2-yl)piperazin-1-yl)methyl)-2-(2,4-dioxotetrahydropyrimidin-1(2H)-yl)isoindoline-1,3-dione]	–	18 to 25%	10 to 15%	–	20 to 40%	20 to 40%	–	–	–	–	–	–
Cc1nc(C2CCN(Cc3ccc4c(c3)CN(N3CCC(=O)NC3=O)C4=O)CC2)c2c3c(sc2n1)CCC3 [GT-08114, 1-(5-((4-(2-methyl-6,7-dihydro-5H-cyclopenta[4,5]thieno[2,3-d]pyrimidin-4-yl)piperidin-1-yl)methyl)-1-oxoisoindolin-2-yl)dihydropyrimidine-2,4(1H,3H)-dione]	B (80%< substrate protein remaining %≤ 100%)	18 to 25%	18 to 25%	A (0% ≤ substrate protein remaining % ≤ 80%)	20 to 40%	10 to 15%	B (80%< substrate protein remaining %≤ 100%)	B (80%< substrate protein remaining %≤ 100%)	B (80%< substrate protein remaining %≤ 100%)	B (80%< substrate protein remaining %≤ 100%)	–	–
Cc1csc2ncnc(N3CCN(Cc4ccc5c(c4)CN(N4CCC(=O)NC4=O)C5=O)CC3)c12 [GT-08058, 1-(5-((4-(5-methylthieno[2,3-d]pyrimidin-4-yl)piperazin-1-yl)methyl)-1-oxoisoindolin-2-yl)dihydropyrimidine-2,4(1H,3H)-dione]	B (80%< substrate protein remaining %≤ 100%)	25 to 40%	15 to 18%	B (80%< substrate protein remaining %≤ 100%)	–	–	B (80%< substrate protein remaining %≤ 100%)	B (80%< substrate protein remaining %≤ 100%)	A (0% ≤ substrate protein remaining % ≤ 80%)	B (80%< substrate protein remaining %≤ 100%)	–	–
O=C1CCN(N2Cc3cc(CN4CCN(c5ncc6ccsc6n5)CC4)ccc3C2=O)C(=O)N1 [GT-08081, 1-(1-oxo-5-((4-(thieno[2,3-d]pyrimidin-2-yl)piperazin-1-yl)methyl)isoindolin-2-yl)dihydropyrimidine-2,4(1H,3H)-dione]	A (0% ≤ substrate protein remaining % ≤ 80%)	18 to 25%	5 to 10%	A (0% ≤ substrate protein remaining % ≤ 80%)	–	–	A (0% ≤ substrate protein remaining % ≤ 80%)	B (80%< substrate protein remaining %≤ 100%)	B (80%< substrate protein remaining %≤ 100%)	B (80%< substrate protein remaining %≤ 100%)	18 to 25%	25 to 30%
O=C1CCN(N2C(=O)c3ccc(CN4CC(=C5CCOc6cc(F)ccc65)C4)cc3C2=O)C(=O)N1 [GT-07888, 2-(2,4-dioxotetrahydropyrimidin-1(2H)-yl)-5-((3-(7-fluorochroman-4-ylidene)azetidin-1-yl)methyl)isoindoline-1,3-dione]	–	18 to 25%	18 to 25%	–	5 to 10%	10 to 15%	–	–	–	–	40 to 60%	40 to 60%
